In patent US20230414754A1, “CONDITIONAL CONTROL OF UNIVERSAL CAR T CELLS THROUGH STIMULUS-REACTIVE ADAPTORS” (UNIVERSITY OF PITTSBURGH-OF THE COMMONWEALTH SYSTEM OF …, priority 2020, published 2023):

How the values were obtained:
SNAP-synNotch receptor = SNAP-synNotch receptor activation in Jurkat cells co-incubated with target cells (TagBFP output); assay type: cell-based
Text: 51. […] The system triggers Gal4-VP64 transcription factor-driven TagRFP expression. […] TagRFP levels are reported as mean fluorescence intensity (MFI), n=3 biologically independent experiments±s.d.
176. We created a universal adaptor synNotch to direct receptor activation and the resulting transcriptional gene output in response to interaction with BG-conjugated adaptor antibodies on the surface of target cells (FIG. 22). We cloned a SNAP-synNotch receptor consisting of the SNAPtag domain fused to the Notch core protein, and the Gal4-transcription factor (to turn on a gal4 promoter-driven TagBFP gene) and transduced Jurkat cells. […] Receptor activation was sensitive and tunable, with a significant response at an antibody concentration as low as 0.04 μglmL and increasing to a peak at 0.25 μg/mL. Response gene activation then decreased with increasing antibody indicative of a “hook effect”—as expected in ternary complex formation. BG-conjugated antibodies targeting other antigens were also capable of activating the SNAP-synNotch receptor in an antigen-specific manner indicating universality of the cell re-programming approach.

SNAPtag = assay: Incubation of MTGase-made adaptor with SNAP protein, SDS-PAGE; assay type: biochemical; settings: SNAPtag 2 eq. per BG
Experimental: (§1) 55. FIGS. 26A and 26B show MTGase enzymatic antibody-adaptor conjugation. […] CD69 T cell activation marker expression on the CAR T cells was evaluated after 24 h. n=3 biol. reps.
(§2) 187. In a complementary, enzymatic conjugation approach we synthesized the terminal amine 11 from the commercially available PEG 10 (FIG. 12A), and target a conserved glutamine located in each of the heavy chains of the de-glycosylated IgG1 antibody through selective modification by the enzyme MTGase (FIG. 12B). This generates uniform conjugates in quantitative yields adding exactly two modifications using conserved glutamines as the only γ-carbonyl amide donors on dei-glycosylated IgGls, This method that has been used for dozens of clinical use ADCs. […] In addition, the site-specific adaptor was efficient at inducing T cell activity (FIG. 26B).

CD20+ Raji target cells = assay: SNAP-CAR T cell activation (CD69) with MTGase-produced site-specific adaptor; assay type: cell-based, human; settings: CD69 after 24 h
Experimental: as §1, §2

With mSA2 the “function of universal adaptor synNotch system” value (SNAP-synNotch receptor) was “ineffective”.
With “RTX-BG: PEG2-BG labeled Rituximab adaptor made via MTGase conjugation” the “BG labeling by incubation with SNAP protein” value (SNAPtag) was “near complete” and the “inducing T cell activity” value (CD20+ Raji target cells) was “efficient”.
